Consider one molecule from ChEMBL document CHEMBL5291721, “A preclinical secondary pharmacology resource illuminates target-adverse drug reaction associations of marketed drugs” (Nat Commun, 2023).

This experiment addresses T1, Alpha-1A adrenergic receptor (Homo sapiens, UniProt P35348).
T1 sequence (P35348 whole entry): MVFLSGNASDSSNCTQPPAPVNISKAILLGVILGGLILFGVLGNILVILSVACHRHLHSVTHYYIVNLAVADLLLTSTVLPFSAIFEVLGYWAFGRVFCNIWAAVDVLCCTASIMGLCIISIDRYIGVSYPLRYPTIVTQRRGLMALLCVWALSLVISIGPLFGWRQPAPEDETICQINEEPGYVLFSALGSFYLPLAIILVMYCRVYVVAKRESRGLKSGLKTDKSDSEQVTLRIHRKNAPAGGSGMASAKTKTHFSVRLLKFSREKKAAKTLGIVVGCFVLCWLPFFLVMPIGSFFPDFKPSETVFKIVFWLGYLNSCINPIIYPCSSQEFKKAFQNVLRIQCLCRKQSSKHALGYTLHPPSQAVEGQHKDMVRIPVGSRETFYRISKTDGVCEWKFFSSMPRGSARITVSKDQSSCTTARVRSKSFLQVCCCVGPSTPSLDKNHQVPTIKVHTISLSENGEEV
It counts as functional, cell-based.
Note: assay procedure not described here.

Consider `NCCCC(O)(P(=O)(O)O)P(=O)(O)O` [ALENDRONIC ACID], for which the AC50 was more than 30 µM.

One may read the AC50 as the midpoint of the concentration-response curve, whichever way the signal moves. A higher AC50 goes with activity only at high concentration.
